{"source": "patent US4639509A", "about": "“[16,19-Di-alanine] calcitonin” (Armour Pharmaceutical Company, priority 1985, dated 1987)", "key": {"[1]": {"system": "serum calcium concentration", "procedure": "Rats were divided into four groups of seven animals, and each group was assigned at random to a dose of standard or test solution. Low and high doses were chosen from the linear portion of the dose-responsive curve. For the salmon calcitonin standard, the values were 0.7 and 2.1 mcg. peptide/100 g. body weight (BW). This dose approximates 3 and 9 MU/100 g. BW. Peptides were given by subcutaneous injection (0.2 ml/100 g. BW) and blood was withdrawn 1 hour later for serum calcium determination. Sera are processed and analyzed within two hours of collection. Results were analyzed within two hours of collection."}, "[2]": {"settings": "literature values; cited from earlier work"}}, "note": "Bridge positions count the residues as written; N and C are the ends. Peptide text beside a SMILES is read from it."}
{"compound": "CC(C)C[C@H](NC(=O)[C@H](CCCCN)NC(=O)CNC(=O)[C@H](CC(C)C)NC(=O)[C@@H](NC(=O)[C@@H]1CSSC[C@H](N)C(=O)N[C@@H](CO)C(=O)N[C@@H](CC(N)=O)C(=O)N[C@@H](CC(C)C)C(=O)N[C@@H](CO)C(=O)N[C@@H]([C@@H](C)O)C(=O)N1)C(C)C)C(=O)N[C@@H](CO)C(=O)N[C@@H](CCC(N)=O)C(=O)N[C@@H](CCC(=O)O)C(=O)N[C@@H](C)C(=O)N[C@@H](Cc1c[nH]cn1)C(=O)N[C@@H](CCCCN)C(=O)N[C@@H](C)C(=O)N[C@@H](CCC(N)=O)C(=O)N[C@H](C(=O)N[C@@H](Cc1ccc(O)cc1)C(=O)N1CCC[C@H]1C(=O)N[C@@H](CCCNC(=N)N)C(=O)N[C@H](C(=O)N[C@@H](CC(N)=O)C(=O)N[C@H](C(=O)NCC(=O)N[C@@H](CO)C(=O)NCC(=O)N[C@H](C(=O)N1CCC[C@H]1C(N)=O)[C@@H](C)O)[C@@H](C)O)[C@@H](C)O)[C@@H](C)O", "note": "[[Di-Ala^16,19]SCT, [16,19-Di-Alanine]salmon calcitonin] (H-CSNLSTCVLGKLSQEAHKAQTYPRTNTGSGTP-NH2; disulfide 1-7)", "values": [{"measurement": "biological potency", "setting": "[1]; rat, in vivo, sc", "result": 7200, "unit": "IU/mg"}]}
{"compound": "CC(C)C[C@H](NC(=O)[C@H](CCCCN)NC(=O)CNC(=O)[C@H](CC(C)C)NC(=O)[C@@H](NC(=O)[C@@H]1CSSC[C@H](N)C(=O)N[C@@H](CO)C(=O)N[C@@H](CC(N)=O)C(=O)N[C@@H](CC(C)C)C(=O)N[C@@H](CO)C(=O)N[C@@H]([C@@H](C)O)C(=O)N1)C(C)C)C(=O)N[C@@H](CO)C(=O)N[C@@H](CCC(N)=O)C(=O)N[C@@H](CCC(=O)O)C(=O)N[C@@H](CC(C)C)C(=O)N[C@@H](Cc1c[nH]cn1)C(=O)N[C@@H](CCCCN)C(=O)N[C@@H](CC(C)C)C(=O)N[C@@H](CCC(N)=O)C(=O)N[C@H](C(=O)N[C@@H](Cc1ccc(O)cc1)C(=O)N1CCC[C@H]1C(=O)N[C@@H](CCCNC(=N)N)C(=O)N[C@H](C(=O)N[C@@H](CC(N)=O)C(=O)N[C@H](C(=O)NCC(=O)N[C@@H](CO)C(=O)NCC(=O)N[C@H](C(=O)N1CCC[C@H]1C(N)=O)[C@@H](C)O)[C@@H](C)O)[C@@H](C)O)[C@@H](C)O", "note": "[standard salmon calcitonin, Salmon calcitonin]", "values": [{"measurement": "potency content of the standard", "setting": "[1]; standard used in the assay, independently determined", "result": "greater than 4,000 IU/mg"}]}
{"compound": "(1,7-α-L-amino-suberic acid)eel calcitonin", "values": [{"measurement": "hypocalcemic potency", "setting": "[2]", "result": "about 3400 Iu/mg"}]}
